The results in this text go back to ChEMBL document CHEMBL2062430, “Set-up of a new series of HDAC inhibitors: the 5,11-dihydrodibenzo[b,e]azepin-6-ones as privileged structures” (Bioorg Med Chem Lett, 2012).

Broadly, the IC50 is the concentration at which inhibition is half-maximal. Read a low IC50 as greater potency. As usually defined, the inhibition is the change of the read-out against control, counted positive when it falls. A higher inhibition goes with a response far below the control.

In assay [1] the target is Histone deacetylase. As to the kind of experiment: Inhibition of HDAC in human HeLa cell extracts using Fluor de Lys as substrate by fluorescence assay. It counts as protein assay.
Assay [2] has as its system HCT-116. The assay is described as follows: Antiproliferative activity against human HCT116 cells after 5 days by Alamar Blue assay. It counts as functional, cell-based. As to conditions: HCT-116, 120 h.
In assay [3] the target is T1, Histone deacetylase (Homo sapiens) (UniProt Q13547+O15379+Q9UBN7+Q92769+Q9UQL6+Q8WUI4+Q9BY41+Q96DB2+P56524+Q9UKV0+Q969S8). As to conditions: HeLa, at 0.1 µM.
Description: Inhibition of HDAC in human HeLa cell extracts using Fluor de Lys as substrate at 0.1 uM by fluorescence assay
For assay [4], the target named is T1, Histone deacetylase (Homo sapiens). As to conditions: HeLa, at 1 µM.
Description: Inhibition of HDAC in human HeLa cell extracts using Fluor de Lys as substrate at 1 uM by fluorescence assay
For assay [5] the target is unchanged. As to conditions: HeLa, at 0.01 µM.
Description: Inhibition of HDAC in human HeLa cell extracts using Fluor de Lys as substrate at 0.01 uM by fluorescence assay

For `O=C(CCCCCN1C(=O)c2ccccc2C(O)c2ccccc21)NO` (centres undefined), the IC50 is 60 nM in assay [1] and 2000 nM in assay [2]. In addition, the inhibition was 58% in assay [3], 81% in assay [4] and 21% in assay [5].
For `O=C(CCCCN1C(=O)c2ccccc2Cc2ccccc21)NO`, the inhibition in assay [3] was less than 20%; in assay [4], 29%; in assay [5], less than 20%.
Turning to `O=C(CCCN1C(=O)c2ccccc2Cc2ccccc21)NO`, the inhibition in assay [3], in assay [4] and in assay [5] was less than 20% each time.
Take `COC1(OC)c2ccccc2C(=O)N(CCCCCC(=O)NO)c2ccccc21`: the inhibition in assay [3] is less than 20%; in assay [4], 42%; in assay [5] it was less than 20%.
For the molecule `O=C(CCCCCn1c(=O)c2ccccc2c(=O)c2ccccc21)NO`, the half-inhibitory concentration (IC50) was 153 nM in assay [1] and more than 1000 nM in assay [2]. Moreover, the results for the inhibition in assay [3], in assay [4] and in assay [5] were 47%, 77% and 11%, respectively.
With `O=C(CCCCCN1C(=O)c2ccccc2C(F)(F)c2ccccc21)NO`, the concentration for half-maximal inhibition (IC50) in assay [1] came out at 111 nM; in assay [2], 600 nM. The inhibition is 50% in assay [3], 78% in assay [4] and less than 20% in assay [5].
`O=C(CCCCCN1C(=O)c2ccccc2C(F)c2ccccc21)NO` (centres undefined): the IC50 was 53 nM in assay [1] and 1600 nM in assay [2]. For the same molecule, the figures for the inhibition in assay [3], in assay [4] and in assay [5] were 62%, 84% and less than 20%, respectively.
On the same counts, the results for `O=C(CCCCCN1C(=O)c2ccccc2Cc2ccccc21)NO` are 42 nM, 710 nM, 67%, 84% and 21%.
